The subject of this experiment is KM12 cells. Briefly: KM12 cell viability (CellTiter-Glo). The conditions noted are these: Homo sapiens, 72 h; KM12 cell viability, 11-point 3-fold serial dilution, 3 days, CellTiter-Glo; read-out: IC50. It counts as cell-based. The method, then: KM12 or H358 cells were treated with 1000 nM CPD-053 following an 8-point 3-fold serial dilution for 3 days.
KM12 cells seeded in 96-well plates were treated with heterobifunctional compounds following a 11-point 3-fold serial dilution for 3 days.
KM12, H358, HEL, SU-DHL-1 and other cells were cultured at 37° C. with 5% CO2 in RPMI 1640 Medium supplemented with 10% fetal bovine serum. Cells were authenticated using the short tandem repeat (STR) assays. Mycoplasma test results were negative. Stable cell lines were established by lentivirus transduction, selected and maintained in medium containing 1 μg/mL puromycin (Beyotime Biotechnology).
Cells were seeded at a density of 5000 cells per well in 96-well assay plates and treated with test compounds following a 12-point 2-fold serial dilution or a 8-point 3-fold dilution, or 11-point 3-fold serial dilution. Three days later, cell viability was determined using the CellTiter-Glo assay kit (Promega) according to the manufacturer's instructions. The dose-response curves were determined and IC50 values were calculated using the GraphPad Prism software following a nonlinear regression (least squares fit) method.
In general terms: ATP-based viability assays read luminescence as a measure of living cells.

The structures appear in SMILES notation.

By IC50 is commonly meant the concentration at which inhibition is half-maximal. For `Cc1ncsc1-c1ccc(CNC(=O)[C@@H]2C[C@@H](O)CN2C(=O)[C@@H](NC(=O)CCCCC(=O)N2CCN(Cc3ccc(NC(=O)c4coc(N5CCOCC5)n4)c(N4CCC(C(N)=O)CC4)c3)CC2)C(C)(C)C)cc1` [CPD-491, N-(2-(4-carbamoylpiperidin-1-yl)-4-((4-(6-(((S)-1-((2S,4R)-4-hydroxy-2-((4-(4-methylthiazol-5-yl)benzyl)carbamoyl)pyrrolidin-1-yl)-3,3-dimethyl-1-oxobutan-2-yl)amino)-6-oxohexanoyl)piperazin-1-yl)methyl)phenyl)-2-morpholinooxazole-4-carboxamide], the IC50 was 3700 nM.

In the case of `Cc1ncsc1-c1ccc(CNC(=O)[C@@H]2C[C@@H](O)CN2C(=O)[C@@H](NC(=O)CCCCCCC(=O)N2CCN(Cc3ccc(NC(=O)c4coc(N5CCOCC5)n4)c(N4CCC(C(N)=O)CC4)c3)CC2)C(C)(C)C)cc1` [CPD-492, N-(2-(4-carbamoylpiperidin-1-yl)-4-((4-(8-(((S)-1-((2S,4R)-4-hydroxy-2-((4-(4-methylthiazol-5-yl)benzyl)carbamoyl)pyrrolidin-1-yl)-3,3-dimethyl-1-oxobutan-2-yl)amino)-8-oxooctanoyl)piperazin-1-yl)methyl)phenyl)-2-morpholinooxazole-4-carboxamide], the IC50 amounted to 178 nM. In the case of `Cc1ncsc1-c1ccc(CNC(=O)[C@@H]2C[C@@H](O)CN2C(=O)[C@@H](NC(=O)CCOCCC(=O)N2CCN(Cc3ccc(NC(=O)c4coc(N5CCOCC5)n4)c(N4CCC(C(N)=O)CC4)c3)CC2)C(C)(C)C)cc1` [CPD-494], the IC50 was over 10000 nM. With `Cc1ncsc1-c1ccc(CNC(=O)[C@@H]2C[C@@H](O)CN2C(=O)[C@@H](NC(=O)CCOCCOCCC(=O)N2CCN(Cc3ccc(NC(=O)c4coc(N5CCOCC5)n4)c(N4CCC(C(N)=O)CC4)c3)CC2)C(C)(C)C)cc1` [CPD-495] the figure was over 10000 nM; with `Cc1ncsc1-c1ccc(CNC(=O)[C@@H]2C[C@@H](O)CN2C(=O)[C@@H](NC(=O)CCOCCOCCOCCC(=O)N2CCN(Cc3ccc(NC(=O)c4coc(N5CCOCC5)n4)c(N4CCC(C(N)=O)CC4)c3)CC2)C(C)(C)C)cc1` [CPD-496, N-(2-(4-carbamoylpiperidin-1-yl)-4-((4-((S)-15-((2S,4R)-4-hydroxy-2-((4-(4-methylthiazol-5-yl)benzyl)carbamoyl)pyrrolidine-1-carbonyl)-16,16-dimethyl-13-oxo-4,7,10-trioxa-14-azaheptadecanoyl)piperazin-1-yl)methyl)phenyl)-2-morpholinooxazole-4-carboxamide], 8760 nM. Take `Cc1ncsc1-c1ccc(CNC(=O)[C@@H]2C[C@@H](O)CN2C(=O)[C@@H](NC(=O)CCOCCOCCOCCOCCC(=O)N2CCN(Cc3ccc(NC(=O)c4coc(N5CCOCC5)n4)c(N4CCC(C(N)=O)CC4)c3)CC2)C(C)(C)C)cc1` [CPD-497, N-(2-(4-carbamoylpiperidin-1-yl)-4-((4-((S)-18-((2S,4R)-4-hydroxy-2-((4-(4-methylthiazol-5-yl)benzyl)carbamooyl)pyrrolidine-1-carbonyl)-19,19-dimethyl-16-oxo-4,7,10,13-tetraoxa-17-azaicosanoyl)piperazin-1-yl)methyl)phenyl)-2-morpholinooxazole-4-carboxamide]: the IC50 was over 10000 nM.

For `COc1ccc(COc2ccc(Cn3c(N)nc4cc(-c5cnn(CC(=O)NCCOCCNc6cccc7c6C(=O)N(C6CCC(=O)NC6=O)C7=O)c5)cnc43)cc2OC)cc1` (centres unmarked) [CPD-502, 2-(4-(2-amino-3-(3-methoxy-4-((4-methoxybenzyl)oxy)benzyl)-3H-imidazo[4,5-b]pyridin-6-yl)-1H-pyrazol-1-yl)-N-(2-(2-((2-(2,6-dioxopiperidin-3-yl)-1,3-dioxoisoindolin-4-yl)amino)ethoxy)ethyl)acetamide], the IC50 turned out to be 682 nM. For `COc1ccc(COc2ccc(Cn3c(N)nc4cc(-c5cnn(CC(=O)NCCOCCOCCNc6cccc7c6C(=O)N(C6CCC(=O)NC6=O)C7=O)c5)cnc43)cc2OC)cc1` (centres unmarked) [CPD-503, 2-(4-(2-amino-3-(3-methoxy-4-((4-methoxybenzyl)oxy)benzyl)-3H-imidazo[4,5-b]pyridin-6-yl)-1H-pyrazol-1-yl)-N-(2-(2-(2-((2-(2,6-dioxopiperidin-3-yl)-1,3-dioxoisoindolin-4-yl)amino)ethoxy)ethoxy)ethyl)acetamide], the IC50 was determined as 504 nM. For the molecule `COc1ccc(COc2ccc(Cn3c(N)nc4cc(-c5cnn(CC(=O)NCCOCCOCCOCCNc6cccc7c6C(=O)N(C6CCC(=O)NC6=O)C7=O)c5)cnc43)cc2OC)cc1` (centres unmarked) [CPD-504, 2-(4-(2-amino-3-(3-methoxy-4-((4-methoxybenzyl)oxy)benzyl)-3H-imidazo[4,5-b]pyridin-6-yl)-1H-pyrazol-1-yl)-N-(2-(2-(2-(2-((2-(2,6-dioxopiperidin-3-yl)-1,3-dioxoisoindolin-4-yl)amino)ethoxy)ethoxy)ethoxy)ethyl)acetamide], the IC50 came out at 334 nM. With `COc1ccc(COc2ccc(Cn3c(N)nc4cc(-c5cnn(CC(=O)NCCOCCOCCOCCOCCNc6cccc7c6C(=O)N(C6CCC(=O)NC6=O)C7=O)c5)cnc43)cc2OC)cc1` (centres unmarked) [CPD-505, 2-(4-(2-amino-3-(3-methoxy-4-((4-methoxybenzyl)oxy)benzyl)-3H-imidazo[4,5-b]pyridin-6-yl)-1H-pyrazol-1-yl)-N-(14-((2-(2,6-dioxopiperidin-3-yl)-1,3-dioxoisoindolin-4-yl)amino)-3,6,9,12-tetraoxatetradecyl)acetamide] the figure was 195 nM.

As to `COc1ccc(COc2ccc(Cn3c(N)nc4cc(-c5cnn(CC(=O)NCCOCCOCCOCCOCCOCCNc6cccc7c6C(=O)N(C6CCC(=O)NC6=O)C7=O)c5)cnc43)cc2OC)cc1` (centres unmarked) [CPD-506, 2-(4-(2-amino-3-(3-methoxy-4-((4-methoxybenzyl)oxy)benzyl)-3H-imidazo[4,5-b]pyridin-6-yl)-1H-pyrazol-1-yl)-N-(17-((2-(2,6-dioxopiperidin-3-yl)-1,3-dioxoisoindolin-4-yl)amino)-3,6,9,12,15-pentaoxaheptadecyl)acetamide], the IC50 was determined as 204 nM.

With `COc1ccc(COc2ccc(Cn3c(N)nc4cc(-c5cnn(CC(=O)NCC(=O)N[C@H](C(=O)N6C[C@H](O)C[C@H]6C(=O)NCc6ccc(-c7scnc7C)cc6)C(C)(C)C)c5)cnc43)cc2OC)cc1` [CPD-507], the half-maximal inhibitory concentration (IC50) turned out to be 1520 nM. For the molecule `COc1ccc(COc2ccc(Cn3c(N)nc4cc(-c5cnn(CC(=O)NCCCC(=O)N[C@H](C(=O)N6C[C@H](O)C[C@H]6C(=O)NCc6ccc(-c7scnc7C)cc6)C(C)(C)C)c5)cnc43)cc2OC)cc1` [CPD-508, (2S,4R)-1-((S)-2-(4-(2-(4-(2-amino-3-(3-methoxy-4-((4-methoxybenzyl)oxy)benzyl)-3H-imidazo[4,5-b]pyridin-6-yl)-1H-pyrazol-1-yl)acetamido)butanamido)-3,3-dimethylbutanoyl)-4-hydroxy-N-(4-(4-methylthiazol-5-yl)benzyl)pyrrolidine-2-carboxamide], the IC50 came out at 2100 nM. Turning to `COc1ccc(COc2ccc(Cn3c(N)nc4cc(-c5cnn(CC(=O)NCCCCCC(=O)N[C@H](C(=O)N6C[C@H](O)C[C@H]6C(=O)NCc6ccc(-c7scnc7C)cc6)C(C)(C)C)c5)cnc43)cc2OC)cc1` [CPD-509, (2S,4R)-1-((S)-2-(6-(2-(4-(2-amino-3-(3-methoxy-4-((4-methoxybenzyl)oxy)benzyl)-3H-imidazo[4,5-b]pyridin-6-yl)-1H-pyrazol-1-yl)acetamido)hexanamido)-3,3-dimethylbutanoyl)-4-hydroxy-N-(4-(4-methylthiazol-5-yl)benzyl)pyrrolidine-2-carboxamide], the IC50 worked out at 53.1 nM. `COc1ccc(COc2ccc(Cn3c(N)nc4cc(-c5cnn(CC(=O)NCCOCCC(=O)N[C@H](C(=O)N6C[C@H](O)C[C@H]6C(=O)NCc6ccc(-c7scnc7C)cc6)C(C)(C)C)c5)cnc43)cc2OC)cc1` [CPD-512, (2S,4R)-1-((S)-2-(3-(2-(2-(4-(2-amino-3-(3-methoxy-4-((4-methoxybenzyl)oxy)benzyl)-3H-imidazo[4,5-b]pyridin-6-yl)-1H-pyrazol-1-yl)acetamido)ethoxy)propanamido)-3,3-dimethylbutanoyl)-4-hydroxy-N-(4-(4-methylthiazol-5-yl)benzyl)pyrrolidine-2-carboxamide]: the IC50 came out at 307 nM. With `COc1ccc(COc2ccc(Cn3c(N)nc4cc(-c5cnn(CC(=O)NCCOCCOCCC(=O)N[C@H](C(=O)N6C[C@H](O)C[C@H]6C(=O)NCc6ccc(-c7scnc7C)cc6)C(C)(C)C)c5)cnc43)cc2OC)cc1` [CPD-513, (2S,4R)-1-((S)-1-(4-(2-amino-3-(3-methoxy-4-((4-methoxybenzyl)oxy)benzyl)-3H-imidazo[4,5-b]pyridin-6-yl)-1H-pyrazol-1-yl)-14-(tert-butyl)-2,12-dioxo-6,9-dioxa-3,13-diazapentadecan-15-oyl)-4-hydroxy-N-(4-(4-methylthiazol-5-yl)benzyl)pyrrolidine-2-carboxamide], the IC50 worked out at 261 nM. Take `COc1ccc(COc2ccc(Cn3c(N)nc4cc(-c5cnn(CC(=O)NCCOCCOCCOCCC(=O)N[C@H](C(=O)N6C[C@H](O)C[C@H]6C(=O)NCc6ccc(-c7scnc7C)cc6)C(C)(C)C)c5)cnc43)cc2OC)cc1` [CPD-514, (2S,4R)-1-((S)-1-(4-(2-amino-3-(3-methoxy-4-((4-methoxybenzyl)oxy)benzyl)-3H-imidazo[4,5-b]pyridin-6-yl)-1H-pyrazol-1-yl)-17-(tert-butyl)-2,15-dioxo-6,9,12-trioxa-3,16-diazaoctadecan-18-oyl)-4-hydroxy-N-(4-(4-methylthiazol-5-yl)benzyl)pyrrolidine-2-carboxamide]: the IC50 came out at 174 nM.

The values above are taken from patent publication US12410171B2, “Tropomyosin receptor kinase (TRK) degradation compounds and methods of use” (Cullgen (Shanghai), Inc., priority 2020, dated 2025).
